Each structure is given as a SMILES string.

These results are taken from patent publication US9718774B2, “Indole carboxamide derivatives as P2X7 receptor antagonist” (ACTELION PHARMACEUTICALS LTD, priority 2012, dated 2017).

For the test, the target named is T1, human recombinant P2X7 receptor (Homo sapiens, UniProt Q99572).
T1 construct: expressed in transfected cells
T1 sequence (Q99572 1-595): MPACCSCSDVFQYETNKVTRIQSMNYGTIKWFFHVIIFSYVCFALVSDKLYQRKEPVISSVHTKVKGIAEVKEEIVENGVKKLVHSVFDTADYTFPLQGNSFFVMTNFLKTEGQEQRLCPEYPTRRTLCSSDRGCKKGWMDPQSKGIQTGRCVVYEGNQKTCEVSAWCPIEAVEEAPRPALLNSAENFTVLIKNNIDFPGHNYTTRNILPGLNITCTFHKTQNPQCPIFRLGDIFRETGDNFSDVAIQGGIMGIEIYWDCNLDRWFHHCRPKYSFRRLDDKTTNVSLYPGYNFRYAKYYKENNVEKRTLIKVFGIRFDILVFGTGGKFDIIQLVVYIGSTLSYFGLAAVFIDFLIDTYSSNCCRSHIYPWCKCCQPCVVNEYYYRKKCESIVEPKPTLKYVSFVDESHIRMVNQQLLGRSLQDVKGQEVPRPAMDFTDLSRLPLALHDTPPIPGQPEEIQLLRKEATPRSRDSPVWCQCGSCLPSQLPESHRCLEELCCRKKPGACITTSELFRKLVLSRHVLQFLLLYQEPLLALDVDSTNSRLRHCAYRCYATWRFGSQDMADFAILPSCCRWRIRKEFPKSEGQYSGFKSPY
Briefly: YO-PRO assay: P2X7 receptor antagonistic activity in HEK cells stably expressing P2X7. Format: cell-based. Conditions: antagonistic activity with respect to the P2X7 receptor, read-out: IC50. As for the experimental part:
The P2X7 receptor antagonistic activity of the compounds of formula (I) is determined in accordance with the following experimental method.
Cell Line Generation and YO-PRO Assay
Cell line generation was performed in general according to established molecular cloning protocols. Specifically, RNA was extracted from human whole blood using the Qiagen RNeasy kit (Qiagen, CH) according to the manufacturer's instructions. Subsequently cDNA was made (Superscript II, Invitrogen AG, CH) and the human P2X7 gene (genbank ref. BC011913) was amplified with the following primers: […] and […]. The amplified sequence was subsequently ligated into a pcDNA3.1 (+) NotI, NheI digested plasmid. Human embryonic kidney (HEK) cells (ATCC CRL—1573, Manassas, Va., USA) were transfected with the pcDNA3.1 (+).hP2X7 plasmid using lipofectamine 2000 (Invitrogen AG, CH) according to the manufacturer's instructions. Following a 24 h exposure to DNA, cells were trypsinized and re-seeded at low density in the presence of 250 μg Geneticin. Geneticin resistant cells were then selected during two consecutive rounds of cloning by serial limiting dilution with visual inspection. Individual clones were screened for P2X7 expression by applying ATP and recording the resultant uptake of YO-PRO1. Specific cell clones were chosen based on RNA and protein expression. HEK cells stably expressing P2X7 were used to screen drugs using the YO-PRO1 assay. Cells were grown to confluency in adherent culture at 37° C. in a humidified 5% CO2 incubator (split 1/5 every 3-4 days with DMEM, 10% FCS, 1% Penicillin/Streptomycin, 250 μg/ml Geneticin). Adherent cells were detached by incubation with Trypsine (1 ml per 165 cm^2 dish) for 2 minutes, then washed off with 10 ml PBS (without Mg^2+ and Ca^2+), and resuspended in DMEM, 10% FCS, 1% Penicillin/Streptomycin, no Geneticin. 10′000 cells per well (48 hours before the assay) or 25′000 cells per well (Vi-cell XR (Beckman Coulter) (24 hours before the assay) in 50 μl full medium were seeded on 384-well black-wall, clear bottom plates, that were coated before with 10 μl per well Poly-L-Lysine, incubated for 30-60 minutes at 37° C. and washed once with PBS. Medium was removed from cells and 50 μl of assay buffer containing 0.5 μM YO-PRO-1 was added into the wells. Solutions of antagonist compounds were prepared by serial dilutions of a 10 mM DMSO solution of the antagonist into PBS using a BioMek (Beckman Coulter). Each concentration was performed in duplicate. For IC50 measurements 10 concentration points were measured (10 μM being the highest concentration followed by 9 serial dilution steps 1/3). The cells were incubated with the antagonists of the present invention together with ATP at a final concentration of 250 μM for 90 minutes. During this time period, four time points were taken. Each time point comprised the average of several measurements made within a few seconds. Fluorescence was measured in the FLIPR tetra (Molecular Devices) using the filters appropriate for YO-PRO-1 fluorescence (excitation 485/20, emission 530/25). The FLIPR tetra was equipped with Molecular Devices Screen Works system control software to define and run experimental protocols. […] For IC50 measurements the maximum intensity is plotted against the concentration of compound to determine IC50 values.
On to `CC(C)CC(CNC(=O)c1ccc2[nH]ccc2c1Cl)c1ccc(Cl)nc1` (racemic) [Example 66, rac-4-Chloro-1H-indole-5-carboxylic acid [2-(6-chloro-pyridin-3-yl)-4-methyl-pentyl]-amide], for which the IC50 came to 32 nM.

With `O=C(NCC(c1cnc(C2CC2)nc1)N1CCOCC1)c1ccc2[nH]ccc2c1Cl` (racemic) [Example 9, rac-4-Chloro-1H-indole-5-carboxylic acid [2-(2-cyclopropyl-pyrimidin-5-yl)-2-morpholin-4-yl-ethyl]-amide], the IC50 is 7.7 nM.

For the compound `O=C(NCC(c1ccc(F)cc1F)N1CCCCC1)c1ccc2[nH]ccc2c1Cl` (racemic) [Example 31, rac-4-Chloro-1H-indole-5-carboxylic acid [2-(2,4-difluoro-phenyl)-2-piperidin-1-yl-ethyl]-amide], the IC50 came out at 251 nM.

Consider `COc1ccc(C(CNC(=O)c2ccc3[nH]ccc3c2Cl)N2CCOCC2)cn1` (racemic) [Example 11, rac-4-Chloro-1H-indole-5-carboxylic acid [2-(6-methoxy-pyridin-3-yl)-2-morpholin-4-yl-ethyl]-amide], for which the IC50 is 14 nM.

Regarding `COc1cc(C(=O)NCC(c2cnc(C)nc2)N2CCOCC2)c(C)c2cc[nH]c12` (racemic) [Example 109, rac-7-Methoxy-4-methyl-1H-indole-5-carboxylic acid [2-(2-methyl-pyrimidin-5-yl)-2-morpholin-4-yl-ethyl]-amide], the IC50 was 25 nM.

For `CS(=O)(=O)N1CCC(C(CNC(=O)c2ccc3[nH]ccc3c2Cl)c2cccnc2)CC1` (racemic) [Example 23, rac-4-Chloro-1H-indole-5-carboxylic acid [2-(1-methanesulfonyl-piperidin-4-yl)-2-pyridin-3-yl-ethyl]-amide], the 50% inhibitory concentration (IC50) was determined as 56 nM.

As to `Cc1ncc(C(CNC(=O)c2cc(C)c3[nH]ccc3c2C)N2CCOCC2)cn1` (racemic) [Example 104, rac-4,7-Dimethyl-1H-indole-5-carboxylic acid [2-(2-methyl-pyrimidin-5-yl)-2-morpholin-4-yl-ethyl]-amide], the 50% inhibitory concentration (IC50) was 35 nM.

For the compound `Cc1ncc(C(CNC(=O)c2ccc3[nH]ccc3c2Cl)N2CCS(=O)(=O)CC2)cn1` (racemic) [Example 92, rac-4-Chloro-1H-indole-5-carboxylic acid [2-(1,1-dioxo-thiomorpholin-4-yl)-2-(2-methyl-pyrimidin-5-yl)-ethyl]-amide], the 50% inhibitory concentration (IC50) turned out to be 98 nM.

With `Cc1ncc(C(CNC(=O)c2ccc3[nH]ccc3c2Cl)N2CCC(F)(F)C2)cn1` (racemic) [Example 82, rac-4-Chloro-1H-indole-5-carboxylic acid [2-(3,3-difluoro-pyrrolidin-1-yl)-2-(2-methyl-pyrimidin-5-yl)-ethyl]-amide], the 50% inhibitory concentration (IC50) was found to be 34 nM.

In the case of `Cc1ncc(C(CNC(=O)c2ccc3[nH]ccc3c2Cl)C2CCOCC2)cn1` (racemic) [Example 51, rac-4-Chloro-1H-indole-5-carboxylic acid [2-(2-methyl-pyrimidin-5-yl)-2-(tetrahydro-pyran-4-yl)-ethyl]-amide], the half-inhibitory concentration (IC50) worked out at 16 nM.

As for `Cc1ncc(C(CNC(=O)c2ccc3[nH]ccc3c2Cl)N2CCOCC2)cn1` (single isomer, unassigned) [Example 4, 4-Chloro-1H-indole-5-carboxylic acid [2-(2-methyl-pyrimidin-5-yl)-2-morpholin-4-yl-ethyl]-amide], the IC50 is 9.4 nM.

As for `Cc1ncc(C(CNC(=O)c2ccc3[nH]ccc3c2C)N2CCOCC2)cn1` (single isomer, unassigned) [Example 105, 4-Methyl-1H-indole-5-carboxylic acid [2-(2-methyl-pyrimidin-5-yl)-2-morpholin-4-yl-ethyl]-amide], the concentration for half-maximal inhibition (IC50) was found to be 20 nM.

For the compound `Cc1ncc(C(CNC(=O)c2ccc3[nH]ccc3c2Cl)N2CCC(C)CC2)cn1` (racemic) [Example 76, rac-4-Chloro-1H-indole-5-carboxylic acid [2-(4-methyl-piperidin-1-yl)-2-(2-methyl-pyrimidin-5-yl)-ethyl]-amide], the half-inhibitory concentration (IC50) amounted to 348 nM.

Consider `Cc1ncc(C(CNC(=O)c2ccc3[nH]ccc3c2Cl)N(C)CC(C)C)cn1` (racemic) [Example 86, rac-4-Chloro-1H-indole-5-carboxylic acid [2-(isobutyl-methyl-amino)-2-(2-methyl-pyrimidin-5-yl)-ethyl]-amide], for which the IC50 came out at 280 nM.

Take `CCc1cc(C(=O)NCC(c2cnc(C)nc2)N2CCOCC2)c(Cl)c2cc[nH]c12` (single isomer, unassigned) [Example 119, 4-Chloro-7-ethyl-1H-indole-5-carboxylic acid [2-(2-methyl-pyrimidin-5-yl)-2-morpholin-4-yl-ethyl]-amide]: the half-inhibitory concentration (IC50) is 16 nM.

Turning to `CCCc1cc(C(=O)NCC(c2cnc(C)nc2)N2CCOCC2)c(Cl)c2cc[nH]c12` (racemic) [Example 111, rac-4-Chloro-7-propyl-1H-indole-5-carboxylic acid [2-(2-methyl-pyrimidin-5-yl)-2-morpholin-4-yl-ethyl]-amide], the IC50 was found to be 18 nM.

`Cc1ncc(C(CNC(=O)c2ccc3[nH]ccc3c2Cl)C2CCC(F)(F)CC2)cn1` (racemic) [Example 93, rac-4-Chloro-1H-indole-5-carboxylic acid [2-(4,4-difluoro-cyclohexyl)-2-(2-methyl-pyrimidin-5-yl)-ethyl]-amide]: the IC50 was determined as 12 nM.

With `Cc1ncc(C(CNC(=O)c2ccc3[nH]ccc3c2Cl)NCC2CCCC2)cn1` (racemic) [Example 84, rac-4-Chloro-1H-indole-5-carboxylic acid [2-(cyclopentylmethyl-amino)-2-(2-methyl-pyrimidin-5-yl)-ethyl]-amide], the half-maximal inhibitory concentration (IC50) is 1470 nM.

In the case of `COCCCc1cc(C(=O)NCC(c2cnc(C)nc2)N2CCOCC2)c(Cl)c2cc[nH]c12` (racemic) [Example 99, rac-4-Chloro-7-(3-methoxy-propyl)-1H-indole-5-carboxylic acid [2-(2-methyl-pyrimidin-5-yl)-2-morpholin-4-yl-ethyl]-amide], the 50% inhibitory concentration (IC50) came out at 21 nM.

Turning to `Cc1ncc(C(CNC(=O)c2ccc3[nH]ccc3c2Cl)N2CCC(F)(F)CC2)cn1` (single isomer, unassigned) [Example 5, 4-Chloro-1H-indole-5-carboxylic acid [2-(4,4-difluoro-piperidin-1-yl)-2-(2-methyl-pyrimidin-5-yl)-ethyl]-amide], the IC50 was 7.9 nM.

For `Cc1ncc(C(CNC(=O)c2ccc3[nH]ccc3c2Cl)N2CC(C)OC(C)C2)cn1` (single isomer, unassigned) [Example 42, 4-Chloro-1H-indole-5-carboxylic acid [2-(2,6-dimethyl-morpholin-4-yl)-2-(2-methyl-pyrimidin-5-yl)-ethyl]-amide], the IC50 was 36 nM.

`Cc1ncc(C(CNC(=O)c2ccc3[nH]ccc3c2Cl)N(C)Cc2ccccc2)cn1` (racemic) [Example 87, rac-4-Chloro-1H-indole-5-carboxylic acid [2-(benzyl-methyl-amino)-2-(2-methyl-pyrimidin-5-yl)-ethyl]-amide]: the half-maximal inhibitory concentration (IC50) came to 2650 nM.
